ChEMBL document CHEMBL4732259, “Imidazo[1,2-c]pyrimidin-5(6H)-one inhibitors of CDK2: Synthesis, kinase inhibition and co-crystal structure” (Eur J Med Chem, 2021)
The source made the active and inactive calls. No cut-off for these calls is given here.

Experiments:
K562 = assay: Antiproliferative activity against human K562 cells assessed as cell viability at 10 uM incubated for 72 hrs by resazurin assay; assay type: functional; settings: read-out: Activity
MOLM-13 [1] = assay: Antiproliferative activity against human MOLM-13 cells assessed as cell viability at 10 uM incubated for 72 hrs by resazurin assay; assay type: functional; settings: read-out: Activity
MV4-11 [2] = assay: Antiproliferative activity against human MV4-11 cells assessed as cell viability at 10 uM incubated for 72 hrs by resazurin assay; assay type: functional; settings: read-out: Activity
[3] = molecular target: T1, Cyclin-dependent kinase 2/cyclin E1 (Homo sapiens, UniProt P24941); assay: Inhibition of CDK2/cyclin E (unknown origin) using peptide substrate in presence of [gamma33P]ATP by image analyser; assay type: protein-complex assay
[4] = molecular target: Cyclin-dependent kinase 4/cyclin D1 (Homo sapiens, UniProt P11802); assay: Inhibition of CDK4/cyclin D1 (unknown origin) using peptide substrate in presence of [gamma33P]ATP by image analyser; assay type: protein-complex assay
Chain of Cyclin-dependent kinase 4/cyclin D1 (P11802 whole entry): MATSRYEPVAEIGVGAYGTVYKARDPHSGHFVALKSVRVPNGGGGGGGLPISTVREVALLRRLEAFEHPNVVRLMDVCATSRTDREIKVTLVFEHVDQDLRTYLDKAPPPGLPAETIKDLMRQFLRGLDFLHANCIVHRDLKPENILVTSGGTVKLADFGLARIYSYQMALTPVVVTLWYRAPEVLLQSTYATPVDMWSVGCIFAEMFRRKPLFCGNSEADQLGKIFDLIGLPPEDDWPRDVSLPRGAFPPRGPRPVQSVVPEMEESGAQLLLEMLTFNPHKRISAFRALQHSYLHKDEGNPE
Chain of Cyclin-dependent kinase 4/cyclin D1 (P24385 whole entry, further chain): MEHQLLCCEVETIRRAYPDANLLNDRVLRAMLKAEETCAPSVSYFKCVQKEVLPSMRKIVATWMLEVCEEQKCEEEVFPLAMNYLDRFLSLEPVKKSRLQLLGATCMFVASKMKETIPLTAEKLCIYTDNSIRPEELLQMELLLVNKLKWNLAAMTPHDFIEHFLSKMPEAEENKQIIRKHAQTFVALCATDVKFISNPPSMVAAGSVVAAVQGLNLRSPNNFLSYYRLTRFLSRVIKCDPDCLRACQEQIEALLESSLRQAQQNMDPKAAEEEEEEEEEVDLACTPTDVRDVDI

CDK2/Cyclin A2 = CDK2/Cyclin A2 (Homo sapiens, UniProt P24941); assay: Inhibition of CDK2/cyclin A2 (unknown origin) using peptide substrate in presence of [gamma33P]ATP by image analyser; assay type: protein-complex assay
[5] = molecular target: Cyclin-dependent kinase 1/cyclin B1 (Homo sapiens, UniProt P06493); assay: Inhibition of CDK1/cyclin B (unknown origin) using peptide substrate in presence of [gamma33P]ATP by image analyser; assay type: protein-complex assay
Chain of Cyclin-dependent kinase 1/cyclin B1 (P06493 whole entry): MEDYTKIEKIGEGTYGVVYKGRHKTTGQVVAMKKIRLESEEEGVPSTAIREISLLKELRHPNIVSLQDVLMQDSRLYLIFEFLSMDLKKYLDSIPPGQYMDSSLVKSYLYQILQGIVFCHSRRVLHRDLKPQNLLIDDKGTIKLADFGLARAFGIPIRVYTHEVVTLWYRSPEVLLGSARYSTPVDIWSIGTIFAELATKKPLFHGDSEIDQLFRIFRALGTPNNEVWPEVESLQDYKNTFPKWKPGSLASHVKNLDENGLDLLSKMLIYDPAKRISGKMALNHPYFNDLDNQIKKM
Chain of Cyclin-dependent kinase 1/cyclin B1 (P14635 whole entry, further chain): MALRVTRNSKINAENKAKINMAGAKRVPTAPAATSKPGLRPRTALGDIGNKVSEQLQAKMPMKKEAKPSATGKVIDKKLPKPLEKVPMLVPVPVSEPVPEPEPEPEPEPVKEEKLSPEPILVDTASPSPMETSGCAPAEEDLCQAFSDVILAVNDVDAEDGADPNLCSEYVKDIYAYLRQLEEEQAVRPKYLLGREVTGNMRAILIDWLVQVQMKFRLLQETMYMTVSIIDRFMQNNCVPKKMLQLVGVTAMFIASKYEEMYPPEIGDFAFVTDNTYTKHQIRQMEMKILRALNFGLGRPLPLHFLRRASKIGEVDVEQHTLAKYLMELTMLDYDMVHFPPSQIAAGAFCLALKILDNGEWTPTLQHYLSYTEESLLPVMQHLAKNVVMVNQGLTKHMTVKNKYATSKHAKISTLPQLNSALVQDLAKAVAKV

[6] = Inhibition of CDK3/cyclin A2 (unknown origin) using peptide substrate in presence of [gamma33P]ATP by image analyser; design: species or system Homo sapiens
CDK9/cyclin T1 = CDK9/cyclin T1 (Homo sapiens, UniProt P50750); assay: Inhibition of CDK9/cyclin T1 (unknown origin) using peptide substrate in presence of [gamma33P]ATP by image analyser; assay type: protein-complex assay
Chain of CDK9/cyclin T1 (O60563 whole entry): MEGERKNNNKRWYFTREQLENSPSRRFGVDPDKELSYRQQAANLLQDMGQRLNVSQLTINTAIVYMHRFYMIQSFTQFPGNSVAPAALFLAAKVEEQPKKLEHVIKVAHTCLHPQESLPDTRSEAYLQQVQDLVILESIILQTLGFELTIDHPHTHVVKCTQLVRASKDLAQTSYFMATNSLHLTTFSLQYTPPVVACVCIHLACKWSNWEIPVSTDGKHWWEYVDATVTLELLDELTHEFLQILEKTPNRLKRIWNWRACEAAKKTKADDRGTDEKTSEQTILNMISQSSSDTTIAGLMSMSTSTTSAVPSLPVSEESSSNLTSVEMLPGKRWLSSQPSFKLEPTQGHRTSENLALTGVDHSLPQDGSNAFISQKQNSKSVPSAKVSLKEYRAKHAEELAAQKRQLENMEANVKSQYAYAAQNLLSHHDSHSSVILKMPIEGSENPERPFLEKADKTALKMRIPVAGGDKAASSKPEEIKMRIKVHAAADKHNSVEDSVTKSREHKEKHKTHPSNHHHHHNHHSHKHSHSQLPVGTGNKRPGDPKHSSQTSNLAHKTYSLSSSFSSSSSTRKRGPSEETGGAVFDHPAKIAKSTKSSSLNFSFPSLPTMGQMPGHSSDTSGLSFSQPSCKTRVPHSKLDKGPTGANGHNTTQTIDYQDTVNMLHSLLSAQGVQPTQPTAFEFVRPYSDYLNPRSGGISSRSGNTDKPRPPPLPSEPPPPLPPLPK
Chain of CDK9/cyclin T1 (P50750 whole entry): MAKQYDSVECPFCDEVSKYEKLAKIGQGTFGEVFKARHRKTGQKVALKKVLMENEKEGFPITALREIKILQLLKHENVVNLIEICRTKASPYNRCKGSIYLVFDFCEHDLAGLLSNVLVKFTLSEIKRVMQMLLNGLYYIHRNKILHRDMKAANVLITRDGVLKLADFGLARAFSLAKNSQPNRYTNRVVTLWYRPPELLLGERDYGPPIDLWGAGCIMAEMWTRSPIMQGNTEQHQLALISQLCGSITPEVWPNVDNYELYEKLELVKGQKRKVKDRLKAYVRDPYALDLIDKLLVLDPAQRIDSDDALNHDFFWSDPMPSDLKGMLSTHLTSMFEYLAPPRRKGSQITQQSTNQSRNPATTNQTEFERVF

[7] = molecular target: T1, Cyclin-dependent kinase 2/cyclin E1; assay: Inhibition of CDK2/cyclin E (unknown origin) expressed in baculovirus infected Sf9 cells using histone H1 as substrate in presence of [gamma33P]ATP by image analyser
[8] = molecular target: T2, Cyclin-dependent kinase 2 (Homo sapiens, UniProt P24941); assay: Binding affinity to CDK2 (unknown origin) assessed as change in entropy by isothermal titration calorimetry
[9] = molecular target: T2, Cyclin-dependent kinase 2; assay: Binding affinity to CDK2 (unknown origin) by isothermal titration calorimetry
[10] = molecular target: T2, Cyclin-dependent kinase 2
Description: Binding affinity to CDK2 (unknown origin) assessed as gibbs free energy change by isothermal titration calorimetry

MV4-11 [11] = assay: Induction of cell cycle arrest in human MV4-11 cells assessed as accumulation at sub-G1 phase at high dose after 72 hrs by propidium iodide staining based flow cytometry analysis; assay type: functional
MV4-11 [12] = assay: Induction of cell cycle arrest in human MV4-11 cells assessed as accumulation at G1 phase after 24 to 72 hrs by propidium iodide staining based flow cytometry analysis; assay type: functional; settings: dose 6-100 µM, time 24-72 hrs
[13] = molecular target: T2, Cyclin-dependent kinase 2; assay: Binding affinity to CDK2 (unknown origin) assessed as change in enthalpy by isothermal titration calorimetry
[14] = molecular target: Cyclin-dependent kinase 4/cyclin D1 (Homo sapiens) (UniProt P11802+P24385); assay: Inhibition of CDK4/cyclin D1 (unknown origin) at 20 uM using peptide substrate in presence of [gamma33P]ATP by image analyser relative to control; assay type: protein-complex assay
MV4-11 [15] = assay: Induction of cell cycle arrest in human MV4-11 cells assessed as reduction in S phase cells at high dose after 24 to 72 hrs by propidium iodide staining based flow cytometry analysis; assay type: functional; settings: time 24-72 hrs
MOLM-13 [16] = assay: Antiproliferative activity against human MOLM-13 cells assessed as growth inhibition after 72 hrs by resazurin assay; assay type: functional
MV4-11 [17] = assay: Antiproliferative activity against human MV4-11 cells assessed as growth inhibition after 72 hrs by resazurin assay; assay type: functional

Row | IC50 [3] | SMILES | viability at 10 µM (K562) | viability at 10 µM (MOLM-13 [1]) | viability at 10 µM (MV4-11 [2]) | further results
1 | > 12.5 µM | O=c1[nH]cc(-c2ccc(-c3c[nH]c(=O)n4ccnc34)cc2)c2nccn12 | 111% | 87.5% | 91.4% | –
2 | 4 µM | O=c1[nH]cc(C2CCCC2)c2nccn12 | 105% | 90.5% | 90.2% | –
3 | 1.5 µM | O=c1n(CCO)cc(C2CCCCC2)c2nccn12 | 103% | 91.9% | 88.4% | –
4 | > 50 µM | O=c1[nH]cc(-c2ccccc2)c2ncc(Br)n12 | 109% | 82.7% | 78.6% | –
5 | 0.031 µM | NS(=O)(=O)c1ccc(Nc2nc(-c3cccc(-c4ccccc4)c3)c3nc[nH]c3n2)cc1 | 94.5% | 98.3% | 62.8% | IC50 [4]: > 20 µM; IC50 (CDK2/Cyclin A2): 0.022 µM; IC50 [5]: 4.3 µM; IC50 [6]: 2.87 µM; IC50 (CDK9/cyclin T1): 9.4 µM
6 | – | O=c1[nH]cc(-c2ccccc2)c2nccn12 | 108% | 87.4% | 89.2% | IC50 [7]: 6.6 µM
7 | > 50 µM | O=C1c2ccccc2C(=O)N1Cn1cc(C2CCCCC2)c2nccn2c1=O | 107% | 91.3% | 87.4% | –
8 | > 50 µM | CCOC(=O)Cn1cc(C2CCCCC2)c2nccn2c1=O | 110% | 90.3% | 93.3% | –
9 | 24.4 µM | O=c1[nH]cc(-c2ccccc2)c2nc(Br)cn12 | 105% | 83.9% | 77.2% | –
10 | 3 µM | O=c1n(CCCO)cc(C2CCCCC2)c2nccn12 | 104% | 94.1% | 91.7% | –
11 | 8.9 µM | O=c1[nH]cc(-c2ccsc2)c2nccn12 | 105% | 87.8% | 84.9% | –
12 | > 50 µM | O=C(O)Cn1cc(C2CCCCC2)c2nccn2c1=O | 108% | 90.3% | 94.7% | –
13 | 17.8 µM | O=c1[nH]cc(/C=C/c2ccccc2)c2nccn12 | 107% | 55.6% | 42.3% | –
14 | > 25 µM | O=c1[nH]cc(-c2ccccc2)c2nc(I)cn12 | 110% | 63.3% | 62.6% | –
15 | > 50 µM | O=c1[nH]cc(-c2ccccc2)c2nc(-c3ccccc3)cn12 | 105% | 83.5% | 84.1% | –
16 | 4.6 µM | O=c1[nH]cc(C2CCCCC2)c2nc(I)c(I)n12 | 99.5% | 53.9% | 57% | –
17 | 6.5 µM | O=c1[nH]cc(C2CCCCC2)c2nc(I)cn12 | 101% | 33.8% | 40.1% | –
18 | > 12.5 µM | O=c1[nH]cc(-c2ccccc2)c2nc(I)c(I)n12 | 113% | 56.7% | 63.1% | –
19 | – | NS(=O)(=O)c1ccc(Nc2nc(OCC3CCCCC3)c3nc[nH]c3n2)cc1 | 103% | 66% | 32.1% | –
20 | 4.7 µM | Cn1cc(C2CCCCC2)c2nccn2c1=O | 105% | 88.3% | 89.3% | –
21 | > 25 µM | O=c1[nH]cc(-c2ccccc2)c2ncc(I)n12 | 109% | 77.4% | 72.6% | –
22 | > 25 µM | COc1ccc(-c2cn3c(=O)[nH]cc(F)c3n2)cc1 | 109% | 51.8% | 42.9% | –
23 | 1.5 µM | O=c1[nH]cc(-c2ccc(O)cc2Cl)c2nccn12 | 105% | 86.2% | 85% | –
24 | 14.2 µM | O=c1[nH]cc(C2CCCCC2)c2ncc(I)n12 | 100% | 70.7% | 78.5% | –
25 | 1.2 µM | O=c1[nH]cc(C2=CCCCC2)c2nccn12 | 101% | 88.7% | 80.6% | –
26 | 0.66 µM | O=c1[nH]cc(C2CCCCC2)c2nccn12 | 103% | 84.8% | 82.2% | -TdeltaS [8]: 3.92 kcal/mol; Kd [9]: 4.1 µM; IC50 [4]: 14.3 µM; IC50 (CDK2/Cyclin A2): 0.68 µM; deltaG [10]: -7.48 kcal/mol; Activity (MV4-11 [11]): Active; IC50 [5]: 4.3 µM; Activity (MV4-11 [12]): Dose-dependent effect; deltaH [13]: -11.4 kcal/mol; IC50 [6]: 2.72 µM; inhibition [14]: 46%; Activity (MV4-11 [15]): Active; GI50 (MOLM-13 [16]): 50 µM; GI50 (MV4-11 [17]): 50 µM; IC50 (CDK9/cyclin T1): 10 µM
27 | 4.9 µM | O=c1[nH]cc(C2=CCCC2)c2nccn12 | 106% | 93.4% | 88.2% | –
28 | 7.7 µM | CC(=O)OCCCn1cc(C2CCCCC2)c2nccn2c1=O | 101% | 93.8% | 88.5% | –
29 | 4.8 µM | O=c1[nH]cc(-c2cccc(O)c2)c2nccn12 | 104% | 85.6% | 82% | –
30 | > 25 µM | COc1ccc(-c2cn3c(=O)[nH]cc(-c4ccc(OC)cc4)c3n2)cc1 | 36.2% | 15.3% | 52% | –
